Where a name gives a salt, the structure may show the parent alone.

The target of the test is T1, apelin receptor (APJ) (Homo sapiens, UniProt P35414).
T1 sequence (P35414 1-380): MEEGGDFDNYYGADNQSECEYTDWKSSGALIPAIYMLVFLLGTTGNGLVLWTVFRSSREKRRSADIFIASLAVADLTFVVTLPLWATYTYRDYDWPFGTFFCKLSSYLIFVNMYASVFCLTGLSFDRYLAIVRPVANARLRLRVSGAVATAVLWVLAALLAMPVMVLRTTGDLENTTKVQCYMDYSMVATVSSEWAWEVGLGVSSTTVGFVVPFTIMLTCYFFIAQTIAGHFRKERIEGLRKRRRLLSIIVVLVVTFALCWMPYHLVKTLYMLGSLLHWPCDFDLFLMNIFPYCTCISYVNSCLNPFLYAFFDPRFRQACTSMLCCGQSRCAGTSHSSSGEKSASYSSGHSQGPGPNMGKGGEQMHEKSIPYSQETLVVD
As to the kind of experiment: In vitro apelin agonist activity (methods of Giddings et al., Apelin-13 as positive control). The test is classed as cell-based. The following applies: in vitro apelin agonist activity, methods of Giddings et al., Apelin-13 as positive control; read-out: EC50 (nM) Ave. The text has this: Characterization of the Apelin Agonist Activity of the Compounds
1:39-47, the contents of which are hereby incorporated by reference in its entirety. Using the methods described in Giddings et al. and Apelin-13 as a positive control.
As to `CC1(C)CN(CC[C@@H](CC(=O)O)NC(=O)c2cc(-c3ccccc3C(F)(F)F)n(C3CCCC3)n2)C1` [compound 588, (3S)-3-({1-cyclopentyl-5-[2-(trifluoromethyl)phenyl]-1H-pyrazol-3-yl]formamido)-5-(3,3-dimethylazetidin-1-yl)pentanoic acid], the EC50 (in general, the concentration giving half of the maximal effect) was found to be 502 nM.

In the case of `CC(F)(F)c1ccccc1-c1cc(C(=O)N[C@@H](CCN2CC(F)(F)C2)CC(=O)O)nn1C1CCCC1` [compound 589], the concentration giving a half-maximal response (EC50) was 171 nM.

Turning to `O=C(O)C[C@H](CCN1CC[C@@H](F)C1)NC(=O)c1cc(-c2ccccc2C(F)(F)F)n(C2CCCC2)n1` [compound 590, (3S)-3-({1-cyclopentyl-5-[2-(trifluoromethyl)phenyl]-1H-pyrazol-3-yl]formamido)-5-[(3R)-3-fluoropyrrolidin-1-yl]pentanoic acid], the EC50 amounted to 1160 nM.

Turning to `O=C(O)C[C@H](CCN1CC2(CCC2(F)F)C1)NC(=O)c1cc(-c2ccccc2C(F)(F)F)n(C2CCCC2)n1` [compound 591, (3S)-3-({1-cyclopentyl-5-[2-(trifluoromethyl)phenyl]-1H-pyrazol-3-yl]formamido)-5-{5,5-difluoro-2-azaspiro[3.3]heptan-2-yl}pentanoic acid], the half-maximal effective concentration (EC50) came to 528 nM.

Consider `CC(F)(F)c1ccccc1-c1cc(C(=O)N[C@@H](CCN2CCC[C@@H](F)C2)CC(=O)O)nn1C1CCCC1` [compound 593, (3S)-3-({1-cyclopentyl-5-[2-(1,1-difluoroethyl)phenyl]-1H-pyrazol-3-yl}formamido)-5-[(3R)-3-fluoropiperidin-1-yl]pentanoic acid], for which the EC50 stood at 79 nM.

Take `CC(C[C@@H](CC(=O)O)NC(=O)c1cc(-c2ccccc2C(C)(F)F)n(C2CCCC2)n1)N1C[C@H](F)[C@@H](F)C1` (stereo partly drawn) [compound 595]: the EC50 came to 140 nM.

On to `C[C@H](C(=O)O)[C@H](CCN1CCCC(F)(F)C1)NC(=O)c1cc(-c2ccccc2C(F)(F)F)n(C2CCCC2)n1` [compound 596, (2S,3S)-3-({1-cyclopentyl-5-[2-(trifluoromethyl)phenyl]-1H-pyrazol-3-yl}formamido)-5-(3,3-difluoropiperidin-1-yl)-2-methylpentanoic acid], for which the EC50 is 88 nM.

In the case of `C[C@@H](C(=O)O)[C@H](CCN1CCCC(F)(F)C1)NC(=O)c1cc(-c2ccccc2C(F)(F)F)n(C2CCCC2)n1` [compound 597, (2R,3S)-3-({1-cyclopentyl-5-[2-(trifluoromethyl)phenyl]-1H-pyrazol-3-yl}formamido)-5-(3,3-difluoropiperidin-1-yl)-2-methylpentanoic acid], the EC50 was 23 nM.

Take `CC(F)(F)c1ccccc1-c1cc(C(=O)N[C@@H](CCN2C[C@@H](F)[C@@H](F)C2)CC(=O)O)nn1C1CCCC1` [compound 598, (3S)-3-({1-cyclopentyl-5-[2-(1,1-difluoroethyl)phenyl]-1H-pyrazol-3-yl}formamido)-5-[cis-3,4-difluoropyrrolidin-1-yl]pentanoic acid]: the half-maximal effective concentration (EC50) turned out to be 103 nM.

As for `C[C@@H](C[C@@H](CC(=O)O)NC(=O)c1cc(-c2ccccc2C(C)(F)F)n(C2CCCC2)n1)N1CCC(F)(F)C1` [compound 600, (3S,5S)-3-({1-cyclopentyl-5-[2-(1,1-difluoroethyl)phenyl]-1H-pyrazol-3-yl}formamido)-5-(3,3-difluoropyrrolidin-1-yl)hexanoic acid], the concentration giving a half-maximal response (EC50) came out at 67 nM.

As for `O=C(O)C[C@H](CCN1CC(C(F)(F)F)C1)NC(=O)c1cc(-c2ccccc2C(F)(F)F)n(C2CCCC2)n1` [compound 601, (3S)-3-({1-cyclopentyl-5-[2-(trifluoromethyl)phenyl]-1H-pyrazol-3-yl]formamido)-543-(trifluoromethypazetidin-1-yl]pentanoic acid], the half-maximal effective concentration (EC50) was 128 nM.

Take `O=C(O)C[C@H](CCN1C2CCC1CC(F)(F)C2)NC(=O)c1cc(-c2ccccc2C(F)(F)F)n(C2CCCC2)n1` [compound 602, (3S)-3-({1-cyclopentyl-5-[2-(trifluoromethyl)phenyl]-1H-pyrazol-3-yl}formamido)-5-{3,3-difluoro-8-azabicyclo[3.2.1]octan-8-yl}pentanoic acid]: the EC50 was determined as 346 nM.

On to `O=C(O)C[C@H](CCN1CC2C(C1)C2(F)F)NC(=O)c1cc(-c2ccccc2C(F)(F)F)n(C2CCCC2)n1` (stereo partly drawn) [compound 603, (3S)-3-({1-cyclopentyl-5-[2-(trifluoromethyl)phenyl]-1H-pyrazol-3-yl}formamido)-5-{6,6-difluoro-3-azabicyclo[3.1.0]hexan-3-yl}pentanoic acid], for which the half-maximal effective concentration (EC50) came out at 46 nM.

For `O=C(O)C[C@H](CCN1C(=O)CCCC1=O)NC(=O)c1cc(-c2ccccc2C(F)(F)F)n(C2CCCC2)n1` [compound 604, (3S)-3-({1-cyclopentyl-5-[2-(trifluoromethyl)phenyl]-1H-pyrazol-3-yl}formamido)-5-(2,6-dioxopiperidin-1-yl)pentanoic acid], the EC50 was determined as 55 nM.

For the compound `C[C@@H]1CC(F)(F)CN1CC[C@@H](CC(=O)O)NC(=O)c1cc(-c2ccccc2C(C)(F)F)n(C2CCCC2)n1` [compound 605, (3S)-3-({1-cyclopentyl-5-[2-(1,1-difluoroethyl)phenyl]-1H-pyrazol-3-yl]formamido)-5-[(2R)-4,4-difluoro-2-methylpyrrolidin-1-yl]pentanoic acid], the EC50 came to 11 nM.

For `O=C(O)C[C@H](CCN1CC2CCC(C1)C2(F)F)NC(=O)c1cc(-c2ccccc2C(F)(F)F)n(C2CCCC2)n1` [compound 606, (3S)-3-({1-cyclopentyl-5-[2-(trifluoromethyl)phenyl]-1H-pyrazol-3-yl}formamido)-5-{8,8-difluoro-3-azabicyclo[3.2.1]octan-3-yl}pentanoic acid], the 50% effective concentration (EC50) came out at 310 nM.

`CC1CCC(F)(F)CN1CC[C@@H](CC(=O)O)NC(=O)c1cc(-c2ccccc2C(C)(F)F)n(C2CCCC2)n1` (stereo partly drawn) [compound 607, (3S)-3-({1-cyclopentyl-5-[2-(1,1-difluoroethyl)phenyl]-1H-pyrazol-3-yl}formamido)-5-(5,5-difluoro-2-methylpiperidin-1-yl)pentanoic acid]: the EC50 was found to be 69 nM.

On to `CC1(C)CC(=O)CN1CC[C@@H](CC(=O)O)NC(=O)c1cc(-c2ccccc2C(F)(F)F)n(C2CCCC2)n1` [compound 608, (3S)-3-({1-cyclopentyl-5-[2-(trifluoromethyl)phenyl]-1H-pyrazol-3-yl}formamido)-5-(2,2-dimethyl-4-oxopyrrolidin-1-yl)pentanoic acid], for which the EC50 stood at 1070 nM.

On to `CC1(F)CCN(CC[C@@H](CC(=O)O)NC(=O)c2cc(-c3ccccc3C(F)(F)F)n(C3CCCC3)n2)C1` (stereo partly drawn) [compound 609, (3S)-3-({1-cyclopentyl-5-[2-(trifluoromethyl)phenyl]-1H-pyrazol-3-yl}formamido)-5-(3-fluoro-3-methylpyrrolidin-1-yl)pentanoic acid], for which the EC50 stood at 98 nM.

With `O=C(O)C[C@H](CCN1CC[C@@H](F)[C@@H](F)C1)NC(=O)c1cc(-c2ccccc2C(F)(F)F)n(C2CCCC2)n1` [compound 610], the EC50 turned out to be 43 nM.

As to `CC(F)(F)c1ccccc1-c1cc(C(=O)N[C@@H](CCN2CCC(=O)CC2(C)C)CC(=O)O)nn1C1CCCC1` [compound 611, (3S)-3-({1-cyclopentyl-5-[2-(1,1-difluoroethyl)phenyl]-1H-pyrazol-3-yl}formamido)-5-(2,2-dimethyl-4-oxopiperidin-1-yl)pentanoic acid], the EC50 was 509 nM.

As for `CC1(C)CC(F)(F)CN1CC[C@@H](CC(=O)O)NC(=O)c1cc(-c2ccccc2C(F)(F)F)n(C2CCCC2)n1` [compound 612, (3S)-3-({1-cyclopentyl-5-[2-(trifluoromethyl)phenyl]-1H-pyrazol-3-yl}formamido)-5-(4,4-difluoro-2,2-dimethylpyrrolidin-1-yl)pentanoic acid], the half-maximal effective concentration (EC50) amounted to 231 nM.

For the compound `CC1(F)CCCN(CC[C@@H](CC(=O)O)NC(=O)c2cc(-c3ccccc3C(F)(F)F)n(C3CCCC3)n2)C1` (stereo partly drawn) [compound 613, (3S)-3-({1-cyclopentyl-5-[2-(trifluoromethyl)phenyl]-1H-pyrazol-3-yl}formamido)-5-(3-fluoro-3-methylpiperidin-1-yl)pentanoic acid trifluoroacetate], the EC50 was determined as 104 nM.

Turning to `C[C@]1(F)CCCN(CC[C@@H](CC(=O)O)NC(=O)c2cc(-c3ccccc3C(F)(F)F)n(C3CCCC3)n2)C1` [compound 614, (3S)-3-({1-cyclopentyl-5-[2-(trifluoromethyl)phenyl]-1H-pyrazol-3-yl}formamido)-5-[(3S)-3-fluoro-3-methylpiperidin-1-yl]pentanoic acid], the EC50 came out at 41 nM.

In the case of `O=C(O)C[C@H](CCNC1(C(F)(F)F)CCCC1)NC(=O)c1cc(-c2ccccc2C(F)(F)F)n(C2CCCC2)n1` [compound 615, (3S)-3-({1-cyclopentyl-5-[2-(trifluoromethyl)phenyl]-1H-pyrazol-3-yl}formamido)-5-{[1-(trifluoromethyl)cyclopentyl]amino}pentanoic acid trifluoroacetate], the half-maximal effective concentration (EC50) is 353 nM.

In the case of `O=C(O)C[C@H](CCN1C[C@H](F)[C@@H](F)C1)NC(=O)c1cc(-c2ccccc2C(F)(F)F)n(C2CCCC2)n1` [compound 629, (3S)-3-({1-cyclopentyl-5-[2-(trifluoromethyl)phenyl]-1H-pyrazol-3-yl}formamido)-5-[(3S,4S)-3,4-difluoropyrrolidin-1-yl]pentanoic acid], the 50% effective concentration (EC50) was found to be 77 nM.

With `O=C(N[C@@H](CCN1C[C@H](F)[C@@H](F)C1)Cc1nnn[nH]1)c1cc(-c2ccccc2C(F)(F)F)n(C2CCCC2)n1` [compound 630], the half-maximal effective concentration (EC50) came to 24 nM.

(Values after patent US11535630B2, “Apelin receptor (APJ) agonists and uses thereof” (Research Triangle Institute, priority 2015, dated 2022).)
